Laboratory results reported in patent US20170050957A1, “4-AMINO-6-(HETEROCYCLIC)PICOLINATES AND 6-AMINO-2-(HETEROCYCLIC)PYRIMIDINE-4-CARBOXYLATES AND THEIR USE AS HERBICIDES” (Dow AgroSciences LLC, priority 2013, published 2017).
Like-named read-outs stand apart in the source and are kept apart here. Values belong to the compound of their own block, whether it stands above or below them.

Key:
[1] = tested on: Key Grass and Sedge Weeds as well as Grass Crops; experiment: Post-emergent Test II herbicidal activity (Table 16); type: in vivo; conditions: post-emergence, 336 h, 14 d; for pest or weed control at 35 g/ha: 35 g ai/ha; for pest or weed control at 70 g/ha: 70 g ai/ha; for pest or weed control at 140 g/ha: 140 g ai/ha
Summary of the method: (§1)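 Plants grown in greenhouse (~15 h photoperiod, 23-29 °C day, 22-28 °C night) to first or second true leaf stage, then sprayed post-emergence at 187 L/ha with a high rate and 1/2×, 1/4×, 1/8× and 1/16× dilutions. Injury scored visually after 14 d, 0-100% versus untreated plants.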

[2] = tested on: Key Broadleaf Weed and Crop Species; experiment: Post-emergent Test II herbicidal activity (Table 15); type: in vivo; conditions: post-emergence, 336 h, 14 d; for pest or weed control at 35 g/ha: 35 g ai/ha; for pest or weed control at 70 g/ha: 70 g ai/ha; for pest or weed control at 140 g/ha: 140 g ai/ha
Summary of the method: as §1

[3] = Cyperus esculentus, yellow nutsedge (Cyperus esculentus), read-out: Visual Growth Reduction (%) 14 Days After Application, CYPES
[4] = Echinochloa crus-galli, barnyardgrass (Echinochloa crus-galli), read-out: Visual Growth Reduction (%) 14 Days After Application, ECHCG
[5] = Oryza sativa, rice (Oryza sativa), read-out: Visual Growth Reduction (%) 14 Days After Application, ORYSA
[6] = Setaria faberi, giant foxtail (Setaria faberi), read-out: Visual Growth Reduction (%) 14 Days After Application, SETFA
[7] = Triticum aestivum, wheat, spring (Triticum aestivum), read-out: Visual Growth Reduction (%) 14 Days After Application, TRZAS
[8] = Zea mays, maize, corn (Zea mays), read-out: Visual Growth Reduction (%) 14 Days After Application, ZEAMX
[9] = Abutilon theophrasti, velvetleaf (Abutilon theophrasti), read-out: Visual Growth Reduction (%) 14 Days After Application, ABUTH
[10] = Amaranthus retroflexus, redroot pigweed (Amaranthus retroflexus), read-out: Visual Growth Reduction (%) 14 Days After Application, AMARE
[11] = Brassica napus, oilseed rape, canola (Brassica napus), read-out: Visual Growth Reduction (%) 14 Days After Application, BRSNN
[12] = Chenopodium album, lambsquarters (Chenopodium album), read-out: Visual Growth Reduction (%) 14 Days After Application, CHEAL
[13] = Euphorbia heterophylla, wild poinsettia (Euphorbia heterophylla), read-out: Visual Growth Reduction (%) 14 Days After Application, EPHHL
[14] = Helianthus annuus, sunflower (Helianthus annuus), read-out: Visual Growth Reduction (%) 14 Days After Application, HELAN

melting point: 96 to 100 °C
Compound: COC(=O)c1nc(-c2cccc3cc[nH]c23)c(F)c(N)c1Cl [Compound 1.47]
pest or weed control at 35 g/ha [1, 3]: 0 to 29%
pest or weed control at 70 g/ha [1, 3]: 0 to 29%
pest or weed control at 140 g/ha [1, 3]: 0 to 29%
pest or weed control at 35 g/ha [1, 4]: 0 to 29%
pest or weed control at 70 g/ha [1, 4]: 0 to 29%
pest or weed control at 140 g/ha [1, 4]: 0 to 29%
pest or weed control at 35 g/ha [1, 5]: 0 to 29%
pest or weed control at 70 g/ha [1, 5]: 0 to 29%
pest or weed control at 140 g/ha [1, 5]: 0 to 29%
pest or weed control at 35 g/ha [1, 6]: 0 to 29%
pest or weed control at 70 g/ha [1, 6]: 0 to 29%
pest or weed control at 140 g/ha [1, 6]: 0 to 29%
pest or weed control at 35 g/ha [1, 7]: 0 to 29%
pest or weed control at 70 g/ha [1, 7]: 0 to 29%
pest or weed control at 140 g/ha [1, 7]: 0 to 29%
pest or weed control at 35 g/ha [1, 8]: 0 to 29%
pest or weed control at 70 g/ha [1, 8]: 0 to 29%
pest or weed control at 140 g/ha [1, 8]: 0 to 29%
pest or weed control at 35 g/ha [2, 9]: 0 to 29%
pest or weed control at 70 g/ha [2, 9]: 0 to 29%
pest or weed control at 140 g/ha [2, 9]: 0 to 29%
pest or weed control at 35 g/ha [2, 10]: 0 to 29%
pest or weed control at 70 g/ha [2, 10]: 0 to 29%
pest or weed control at 140 g/ha [2, 10]: 30 to 44%
pest or weed control at 35 g/ha [2, 11]: 0 to 29%
pest or weed control at 70 g/ha [2, 11]: 0 to 29%
pest or weed control at 140 g/ha [2, 11]: 0 to 29%
pest or weed control at 35 g/ha [2, 12]: 75 to 84%
pest or weed control at 70 g/ha [2, 12]: 75 to 84%
pest or weed control at 140 g/ha [2, 12]: 85 to 94%
pest or weed control at 35 g/ha [2, 13]: 0 to 29%
pest or weed control at 70 g/ha [2, 13]: 0 to 29%
pest or weed control at 140 g/ha [2, 13]: 0 to 29%
pest or weed control at 35 g/ha [2, 14]: 0 to 29%
pest or weed control at 70 g/ha [2, 14]: 0 to 29%
pest or weed control at 140 g/ha [2, 14]: 45 to 59%

melting point: 100 to 103 °C
Compound: COC(=O)c1nc(-c2cccc3occc23)c(F)c(N)c1Cl [Compound 2.15]
pest or weed control at 35 g/ha [1, 3]: 0 to 29%
pest or weed control at 70 g/ha [1, 3]: 0 to 29%
pest or weed control at 140 g/ha [1, 3]: 0 to 29%
pest or weed control at 35 g/ha [1, 4]: 0 to 29%
pest or weed control at 70 g/ha [1, 4]: 45 to 59%
pest or weed control at 140 g/ha [1, 4]: 75 to 84%
pest or weed control at 35 g/ha [1, 5]: 0 to 29%
pest or weed control at 70 g/ha [1, 5]: 0 to 29%
pest or weed control at 140 g/ha [1, 5]: 0 to 29%
pest or weed control at 35 g/ha [1, 6]: 0 to 29%
pest or weed control at 70 g/ha [1, 6]: 0 to 29%
pest or weed control at 140 g/ha [1, 6]: 0 to 29%
pest or weed control at 35 g/ha [1, 7]: 0 to 29%
pest or weed control at 70 g/ha [1, 7]: 0 to 29%
pest or weed control at 140 g/ha [1, 7]: 0 to 29%
pest or weed control at 35 g/ha [1, 8]: 95 to 100%
pest or weed control at 70 g/ha [1, 8]: 95 to 100%
pest or weed control at 140 g/ha [1, 8]: 95 to 100%
pest or weed control at 35 g/ha [2, 9]: 45 to 59%
pest or weed control at 70 g/ha [2, 9]: 75 to 84%
pest or weed control at 140 g/ha [2, 9]: 95 to 100%
pest or weed control at 35 g/ha [2, 10]: 95 to 100%
pest or weed control at 70 g/ha [2, 10]: 95 to 100%
pest or weed control at 140 g/ha [2, 10]: 95 to 100%
pest or weed control at 35 g/ha [2, 11]: 45 to 59%
pest or weed control at 70 g/ha [2, 11]: 75 to 84%
pest or weed control at 140 g/ha [2, 11]: 85 to 94%
pest or weed control at 35 g/ha [2, 12]: 95 to 100%
pest or weed control at 70 g/ha [2, 12]: 95 to 100%
pest or weed control at 140 g/ha [2, 12]: 95 to 100%
pest or weed control at 35 g/ha [2, 13]: 0 to 29%
pest or weed control at 70 g/ha [2, 13]: 0 to 29%
pest or weed control at 140 g/ha [2, 13]: 0 to 29%
pest or weed control at 35 g/ha [2, 14]: 45 to 59%
pest or weed control at 70 g/ha [2, 14]: 75 to 84%
pest or weed control at 140 g/ha [2, 14]: 75 to 84%

melting point: 160 °C
Compound: COC(=O)c1nc(-c2cc3ccoc3cc2F)nc(N)c1OC [Compound 2.05]
pest or weed control at 35 g/ha [1, 3]: 0 to 29%
pest or weed control at 70 g/ha [1, 3]: 0 to 29%
pest or weed control at 140 g/ha [1, 3]: 0 to 29%
pest or weed control at 35 g/ha [1, 4]: 0 to 29%
pest or weed control at 70 g/ha [1, 4]: 0 to 29%
pest or weed control at 140 g/ha [1, 4]: 0 to 29%
pest or weed control at 35 g/ha [1, 5]: 0 to 29%
pest or weed control at 70 g/ha [1, 5]: 0 to 29%
pest or weed control at 140 g/ha [1, 5]: 0 to 29%
pest or weed control at 35 g/ha [1, 6]: 0 to 29%
pest or weed control at 70 g/ha [1, 6]: 0 to 29%
pest or weed control at 140 g/ha [1, 6]: 0 to 29%
pest or weed control at 35 g/ha [1, 7]: 0 to 29%
pest or weed control at 70 g/ha [1, 7]: 0 to 29%
pest or weed control at 140 g/ha [1, 7]: 0 to 29%
pest or weed control at 35 g/ha [1, 8]: 0 to 29%
pest or weed control at 70 g/ha [1, 8]: 0 to 29%
pest or weed control at 140 g/ha [1, 8]: 0 to 29%
pest or weed control at 35 g/ha [2, 9]: 0 to 29%
pest or weed control at 70 g/ha [2, 9]: 0 to 29%
pest or weed control at 140 g/ha [2, 9]: 0 to 29%
pest or weed control at 35 g/ha [2, 10]: 85 to 94%
pest or weed control at 70 g/ha [2, 10]: 75 to 84%
pest or weed control at 140 g/ha [2, 10]: 95 to 100%
pest or weed control at 35 g/ha [2, 11]: 0 to 29%
pest or weed control at 70 g/ha [2, 11]: 0 to 29%
pest or weed control at 140 g/ha [2, 11]: 0 to 29%
pest or weed control at 35 g/ha [2, 12]: 0 to 29%
pest or weed control at 70 g/ha [2, 12]: 0 to 29%
pest or weed control at 140 g/ha [2, 12]: 45 to 59%
pest or weed control at 35 g/ha [2, 13]: 30 to 44%
pest or weed control at 70 g/ha [2, 13]: 30 to 44%
pest or weed control at 140 g/ha [2, 13]: 45 to 59%
pest or weed control at 35 g/ha [2, 14]: 0 to 29%
pest or weed control at 70 g/ha [2, 14]: 0 to 29%
pest or weed control at 140 g/ha [2, 14]: 30 to 44%
